From US20250339426A1, “GCN2 MODULATOR FOR TREATING CANCER” (HIBERCELL, INC., priority 2022, published 2025)

Tests used:
CTG-3679 = experiment: Ex vivo AML PDX cell viability (Cell Titer Glo); assay type: cell-based; conditions: Homo sapiens, 144 h; PDX model CTG-3679, 6 days; read-out: HC-7366 EC50
Experimental: (§1) . Cell viability was assayed after treating PDX models with DMSO or HC-7366 for 6 days using a plate-based luminescence assay (Cell Titer Glo). […]
(§2) EC50 values were calculated to the bottom of the curve and are provided below. Viability curves are provided for the models CTG-2229 (FIG. 81), CTG-3680 (FIG. 82), CTG-3667 (FIG. 83), CTG-2456 (FIG. 84), CTG-2457 (FIG. 85), and CTG-2454 (FIG. 86).

CTG-2239 = experiment: Ex vivo AML PDX cell viability (Cell Titer Glo); assay type: cell-based; conditions: Homo sapiens, 144 h; PDX model CTG-2239, 6 days; read-out: HC-7366 EC50
Experimental: as §1, §2

CTG-2232 = experiment: Ex vivo AML PDX cell viability (Cell Titer Glo); assay type: cell-based; conditions: Homo sapiens, 144 h; PDX model CTG-2232, 6 days; read-out: HC-7366 EC50
Experimental: as §1, §2

CTG-2236 = experiment: Ex vivo AML PDX cell viability (Cell Titer Glo); assay type: cell-based; conditions: Homo sapiens, 144 h; PDX model CTG-2236, 6 days; read-out: HC-7366 EC50
Experimental: as §1, §2

CTG-2234 = experiment: Ex vivo AML PDX cell viability (Cell Titer Glo); assay type: cell-based; conditions: Homo sapiens, 144 h; PDX model CTG-2234, 6 days; read-out: HC-7366 EC50
Experimental: as §1, §2

CTG-2457 = experiment: Ex vivo AML PDX cell viability (Cell Titer Glo); assay type: cell-based; conditions: Homo sapiens, 144 h; PDX model CTG-2457, 6 days; read-out: HC-7366 EC50
Experimental: as §1, §2

CTG-3673 = experiment: Ex vivo AML PDX cell viability (Cell Titer Glo); assay type: cell-based; conditions: Homo sapiens, 144 h; PDX model CTG-3673, 6 days; read-out: HC-7366 EC50
Experimental: as §1, §2

CTG-2775 = experiment: Ex vivo AML PDX cell viability (Cell Titer Glo); assay type: cell-based; conditions: Homo sapiens, 144 h; PDX model CTG-2775, 6 days; read-out: HC-7366 EC50
Experimental: as §1, §2

CTG-2233 = experiment: Ex vivo AML PDX cell viability (Cell Titer Glo); assay type: cell-based; conditions: Homo sapiens, 144 h; PDX model CTG-2233, 6 days; read-out: HC-7366 EC50
Experimental: as §1, §2

CTG-2453 = experiment: Ex vivo AML PDX cell viability (Cell Titer Glo); assay type: cell-based; conditions: Homo sapiens, 144 h; PDX model CTG-2453, 6 days; read-out: HC-7366 EC50
Experimental: as §1, §2

CTG-2774 = experiment: Ex vivo AML PDX cell viability (Cell Titer Glo); assay type: cell-based; conditions: Homo sapiens, 144 h; PDX model CTG-2774, 6 days; read-out: HC-7366 EC50
Experimental: as §1, §2

FaDu tumors and plasma = experiment: Metabolomic analysis of tumor and plasma, FaDu tumor bearing mice; assay type: in vivo
Experimental: FaDu tumor bearing mice were treated with vehicle or HC-7366 (1, 3, or 30 mg/kg) twice a day orally for three days, and on the morning of Day 4 an AM dose was administered and tumors and plasma were collected 1 hr after dose. Tumor and plasma samples were extracted and split into equal parts for analysis on LC/MS/MS and Polar LC platforms. Proprietary software was used to match ions to an in-house library of standards for metabolite identification and for metabolite quantitation by peak area integration (Metabolon). Proteomic analysis on tumors was performed at MS Bioworks. The equivalent of 3 μg of peptide from each pooled fraction was analyzed by nano LC-MS/MS with a Waters M-Class HPLC system interfaced to a ThermoFisher Fusion Lumos mass spectrometer. Histograms show metabolite levels of treatment groups normalized to vehicle control (FIGS. 115-122).

[1] = test system: ASNS, PHGDH, PUMA, PSAT1, S100A8/A9 in MV4-11 tumors; experiment: Tumor IHC, MV4-11 tumors (venetoclax combination study); assay type: in vivo, BALB/c nude mice; conditions: end-of-study tumors
Experimental: Immunohistochemical analysis was carried out on tumors that were collected at the end of the study described in Example 6. Formalin-fixed paraffin-embedded samples were sectioned at 5 μm thickness and mounted on Superfrost Plus microscope slides (Fisher Scientific). All immunohistochemical (IHC) staining was performed on Bond Rx auto-stainer (Leica Biosystems) using the conventional TSA-amplified detection system. Primary antibodies used were as follows: a-ASNS (Cell Signaling Technology #92479), a-PUMA (Cell Signaling Technology #98672), a-PSAT1 (Proteintech #10501-1-AP), a-PHGDH (Proteintech #14719-1-AP), HIF-1a-Novus Biologicals NB 100-479, HIF-2a-Novus Biologicals NB100-122SS, and GLUT-1-EMB Biosciences 07-1401. TSA-conjugated Alexa488, Alexa 568 and Alexa647 fluorophores from Invitrogen (#B40953, #B40956, and #B40958) were used at 1:500 dilution. Slides were counterstained with DAPI and cover slipped using Mowiol anti-fade mounting media (Sigma #D2522).
Slides were imaged with Aperio Versa 200 (Leica Biosystems) whole-slide scanner using 10×/0.32NA objective, and the data were analyzed using custom-written macros in ImageJ/FIJI (NIH). Briefly, 150 μm of outer edges of the tumor sections and necrotic regions (determined by lack of 4′,6-diamidino-2-phenylindole (DAPI) signal or presence of condensed DNA) were eliminated from the analysis. Gaussian-blurred DAPI channel was used to measure the area of the tumor tissue. Scans of immune-staining were processed to remove background, then total intensity value above appropriate threshold levels was measured and normalized to tissue area. All graphing and statistics (one-way ANOVA and pair-wise comparisons) were performed using Prism GraphPad.
Slides were deparaffinized, rehydrated and heat mediated antigen retrieval was conducted with AR6 buffer (Akoya). Slides were blocked with Roche diagnostics antibody diluent (Fisher) and stained with primary antibodies for 1 hr at 110 rpm. After washing, horseradish peroxidase (HRP)-conjugated secondary antibodies were added for 10 mins at 110 rpm. After washing, OPAL detection dye (Akoya) was added for a static 10 min incubation. Antigen retrieval was performed post OPAL staining, followed by DAPI staining and slide covering. Multispectral images were captured on the Polaris imaging system (Akoya) and spectral unmixing, cell segmentation and phenotyping was performed using Inform Tissue Finder software (Akoya). Imaging data was converted into .csv files and imported into Flowjo for analysis of S100A8/A9 percent positive cells. Primary antibodies used were rabbit anti-human/mouse S100A8/A9 (Clone RM1038, Abcam ab288715, paired with Opal 570).
Immunohistochemical analysis was performed on the tumors according to the procedures described in Example 7.

[2] = HC-7366 3 mg/kg, alone or with venetoclax

SMILES: CNC(=O)c1ncn2cc(-c3c(F)ccc(NS(=O)(=O)c4cc(Cl)cnc4OC)c3F)ncc12 [HC-7366, 6-(3-((5-chloro-2-methoxypyridine)-3-sulfonamido)-2,6-difluorophenyl)-N-methylimidazo[1,5-a]pyrazine-1-carboxamide]
- EC50 (CTG-3679): 107 µM
- EC50 (CTG-2239): 1170 µM
- EC50 (CTG-2232): 84.3 µM
- EC50 (CTG-2236): 36.5 µM
- EC50 (CTG-2234): 65.5 µM
- EC50 (CTG-2457): 248 µM
- EC50 (CTG-3673): 65.6 µM
- EC50 (CTG-2775): 43.4 µM
- EC50 (CTG-2233): 102 µM
- EC50 (CTG-2453): 180 µM
- EC50 (CTG-2774): 96.9 µM
- urea levels (FaDu tumors and plasma; plasma): significantly increased
- oxidized glutathione levels (FaDu tumors and plasma; tumor): significantly reduced
- reduced glutathione levels (FaDu tumors and plasma; tumor): did not alter
- gamma glutamyl amino acid levels (FaDu tumors and plasma; tumor and plasma): significantly increased
- levels of several amino acids (FaDu tumors and plasma; tumor and plasma, 1, 3, or 30 mg/kg twice a day, Day 4): significantly elevated
- levels of arginine, arginosuccinate and citrulline (FaDu tumors and plasma; tumors): significantly increased
- pyrimidine synthesis metabolites (FaDu tumors and plasma; tumors): significantly reduced
- PSAT1 levels [1]: did not change
- ASNS by IHC [1, 2]: potent activation
- PHGDH by IHC [1, 2]: potent activation
- PUMA by IHC [1, 2]: potent activation
- S100A8/A9 levels ([1]; single agents and combination): significantly reduced
